Data from paper doi:10.1101/2024.07.26.605352v1, “In-vitro Metabolite Identification for MEDI7219, an Oral GLP-1 Peptide, using LC-MS/MS with CID and EAD Fragmentation” (bioRxiv, 2024).

Assays:
[1] = test system: Pancreatin from porcine pancreas; test: In vitro incubation of MEDI7219 with pancreatin in PBS, LC-MS/MS metabolite identification and relative quantification; assay type: in vitro ADME; details: for Time at which fractional abundance peaked: pancreatin 3 mg/ml in PBS, 37 °C, sampling 0.5-6 h
Experimental: MEDI7219 solution (10 µg/ml) was incubated with pancreatin (3 mg/ml) in pre-warmed PBS buffer at 37 °C for 0.5 h, 1 h, 2 h, 4 h and 6 h. A negative control sample was prepared as pancreatin in PBS buffer without MEDI7219 spiked in. A time zero sample was prepared as MEDI7219 in PBS without pancreatin. At each time point, 100 µl was sampled and quenched with 200 µl of acetonitrile. The quenched solution was centrifuged at 6000 g for 10 min. Supernatant was diluted 5-fold in mobile phase A (0.1 % formic acid in water) and 40 µl was injected to LC-MS/MS. Same LC-MS system was used here as structural characterization experiment. A longer LC gradient was applied where 20 % B was increased to 60 % B within 8 min.
For MS method, DDA (data dependent acquisition) experiment was used where ions in range of 800-1250 Da were selected for MS/MS. Same key settings for CID and EAD established in the structural characterization experiment described above were applied in MS method here.
Data were analyzed using Molecule Profiler beta version 1.3.2 (MP, SCIEX) beta version. Raw data from incubation at each time point was analyzed against the pancreatin blank sample in the MP software. […] Amino acid sequence for MEDI7219 was entered as a processing parameter. Non-natural amino acids including α-methyl-L-alanine, α-methyl-L-phenylalanine, α-methyl-L-serine, α-methyl-L-lysine, as well as side-chain lipid on lysine (C35H63N5O11) were added as custom elements by providing molecular formula in the software. Peptide method was used to match all peptide fragment peaks with full lipid side chain. Both MS1 and MS2 were used for peak finding based on mass tolerance of 15 ppm. For MS parameters, charge states 2-5 were included in the search. For MS/MS parameters, theoretical b, y, c’, z· as well as y|a and y|b internal fragment ions were searched with mass tolerance of 15 ppm. Default Biologics biotransformation set was used in the processing method. For quantification, all isotope peaks as part of a cluster and multiple charge states of the same peptide were summed for peak area. Results from individual timepoints were consolidated in Correlation analysis with 0.1 min retention time (RT) tolerance and 15 ppm m/z tolerance to yield the final list of metabolites and peak areas from all samples.
Pancreatin was chosen for the in vitro evaluation because the site of maximal gastrointestinal absorption for MEDI7219 oral peptide was small intestine and proximal colon ([Pechenov et al., 2021]). […]
For relative quantification, after correlation analysis in MP software and exporting XIC peak areas, we calculated fractional abundance of each metabolite over the incubation period (Figure 4). […]

[2] = result in words; ref Pechenov et al., 2021; cited from earlier work
Source text: Semaglutide was the first approved oral GLP-1 receptor agonist ([Mahapatra et al., 2022]) and it incorporated peptide engineering approaches such as unnatural amino acid substitution to protect proteolytic sites, and lipidation to promote plasma protein binding to reduce renal clearance.

[3] = test system: pancreatin; details: result in words; ref Pechenov et al., 2021; cited from earlier work
Source text: Systematic multi-disciplinary approach to engineering led to rational selection of the clinical lead, MEDI7219, a GLP-1 peptide with bis-lipidation and 12 amino acid substitutions and 5 α- methyl modifications ([Pechenov et al., 2021]). […] This measurement was done using HPLC with MEDI7219 detection by UV absorption at 210 nm. In this study, we identified key metabolites from MEDI7219 ... || For relative quantification, after correlation analysis in MP software and exporting XIC peak areas, we calculated fractional abundance of each metabolite over the incubation period (Figure 4). This was taken as a percent of XIC peak area of each metabolite over total peak area of all metabolites at a given timepoint (Table S2). Parent peptide decreased quickly in this experiment compared to the 60 % remained intact after 2 h in previous publication ([Pechenov et al., 2021]). The enzyme to substrate ratio was higher in this study compared to Pechenov et al. as the assay condition was optimized ...

In the case of “HαAEGSαFTSDVαSSsidechainKLEGEAAαKEαFIAsidechainK [Metabolite M2, metabolite of MEDI7219 identified after incubation with pancreatin]”, the “Time at which fractional abundance peaked” value [1] is reported as 0.5 h.

In the case of “HαAEGSαFTSDVαSSsidechainK [Metabolite M13, metabolite of MEDI7219 identified after incubation with pancreatin]”, the “Time at which fractional abundance peaked” value [1] is reported as 0.5 h.

For semaglutide, the “Degradation in GI tract” value [2] is listed as “rapidly degraded in GI tract”.

In the case of “HαAEGSαFTSDVαSSsidechainKLEGEAAαKEαFIAsidechainK VVEGG [MEDI7219, orally-bioavailable GLP-1 peptide with bis-lipidation, 12 amino acid substitutions and 5 α-methyl modifications; clinical candidate]”, the “Parent peptide in metabolite chromatograms over pancreatin incubation” value ([1]; summed XIC chromatograms, 0-6 h, CID data, result in words) is given as “still present at 0.5 h although no longer the prominent species, and it decreased significantly after 2 h”, the “Number of distinct cleavage sites” value ([1]; the 13 metabolites mapped on the MEDI7219 structure) is given as 8 and the “Proteolytic stability compared with wild type or semaglutide” value [3] is given as “proteolytically more stable than the wild type or semaglutide”.
